According to patent US20250302719A1, “COLLAGEN PRODUCTION PROMOTER, COSMETIC COMPOSITION OR EXTERNAL PREPARATION FOR SKIN, AND PREPARATION FOR ORAL ADMINISTRATION” (YAMASA CORPORATION, priority 2022, published 2025):

How the values were obtained:
[1] = tested on: Normal human fibroblasts (NHDF); assay: Type I collagen production by normal human fibroblasts treated with culture supernatant from three-dimensional cultured epidermis (Example 1, ELISA); assay type: cell-based; details: three-dimensional cultured epidermis treated with CMP, 2Na 0.125, 0.25, 1.0, 2.0 w/v % from stratum corneum side, supernatant on fibroblasts 24 hours
Description: To reproduce the phenomenon that would occur in actual epidermis, the effect of promoting collagen production for pyrimidine nucleotides was evaluated with a culture supernatant from three-dimensional cultured epidermis, and with fibroblasts.
Three-dimensional cultured epidermis (LabCyte EPI MODEL 24; manufactured by J TEC) was set in a 24-well plate to which 500 μL of the attached assay medium was added, and conditioned overnight at 37° C. 50 μL of sample-containing PBS (-) was applied from the stratum corneum side and cultured for 24 hours. After removing the sample-containing PBS (-), the plate was washed with PBS (-). The samples to be treated with UVB were irradiated with 600 mJ/cm^2 using a UVB lamp (TL20W/12RS; manufactured by PHILIPS). For both samples with and without the UVB treatment, the media were replaced with fresh media, 50 μL of sample-containing PBS (-) was newly applied from the stratum corneum side, and further cultured for 48 hours. After culturing, the culture supernatant was collected. The concentrations of CMP, 2Na in the respective samples were 0, 0.125, 0.25, 1.0 and 2.0 (w/v %), respectively. […]
The culture supernatant from normal human fibroblasts was collected and an amount of type I collagen was quantified by ELISA. The protein amount of the culture supernatant was also measured by BCA protein assay.

Collagen 1A1 (COL1A1) = assay: mRNA expression of COL1A1 in fibroblasts treated with culture supernatant from three-dimensional cultured epidermis (Example 2, real time PCR); assay type: cell-based, human; details: three-dimensional cultured epidermis treated with CMP, 2Na 1.0, 2.0 w/v %; supernatant on fibroblasts; GAPDH endogenous control
Description: Similarly, the mRNA expression levels of Collagen 1A1 (COL1A1), a factor related to type I collagen synthesis, were quantified by real-time PCR.
Three-dimensional cultured epidermis (LabCyte EPI MODEL 24; manufactured by J TEC) was set in a 24-well plate to which 500 μL of the attached assay medium was added, and conditioned overnight at 37° C. 50 μL of sample-containing PBS (-) was applied from the stratum corneum side and cultured for 24 hours. After removing the sample-containing PBS (-), the plate was washed with PBS (-). The medium was replaced with a fresh medium, 50 μL of sample-containing PBS (-) was newly applied from the stratum corneum side, and further cultured for 48 hours. After culturing, the culture supernatant was collected. The concentrations of CMP, 2Na in the respective samples were 0, 1.0, and 2.0 (w/v %), respectively.
Normal human fibroblasts were treated with the culture supernatant by the same method as that of Example 1. RNA was extracted from NHDF using RNeasy Mini Kit (QIAGEN), and mRNA expression analysis for collagen 1A1 (COL1A1) was performed by real time PCR ([…]). Glyceraldehyde 3-phosphate dehydrogenase (GAPDH) was used as an endogenous control.

[2] = tested on: Normal human fibroblasts (NHDF); assay: Type I collagen production by normal human fibroblasts treated with normal human epidermal cell culture supernatant (K-CM, Example 3, ELISA); assay type: cell-based; details: for amount of collagen in the culture supernatant of normal human fibroblasts (type I collagen): K-CM: supernatant of normal human epidermal cells treated with 1.25, 2.5, 5 mM sample for 24 hours, fibroblasts 24 hours
Description: (§1) The effects of promoting collagen production for pyrimidine nucleotides were then evaluated with the culture supernatant from normal human epidermal cells and with fibroblasts. In this evaluation, the effects were compared for the case where the fibroblasts were directly treated with pyrimidine nucleotides and the case where the fibroblasts were treated with the normal human epidermal cell culture supernatant treated with the pyrimidine nucleotides.
Normal human epidermal cells (NHEK; Kurabo) were seeded in a 96-well plate at a density of 2.5×10^4 cells/well and cultured at 37° C. for 24 hours. The medium was replaced with 100 μL of sample-containing medium (HuMedia-KG2; Kurabo) and cultured for 24 hours. After culturing, the culture supernatant was collected. The sample solutions used were 0, 1.25, 2.5, and 5 (mM) (i.e., 0, 0.0459, 0.0918, and 0.184 (w/v %)) of CMP, 2Na, and 0, 1.25, 2.5, and 5 (mM) (i.e., 0, 0.046, 0.092, and 0.184 (w/v %)) of UMP, 2Na.
Normal human fibroblasts (NHDF; Kurabo) were seeded in a 96-well plate at a density of 2.5×10^4 cells/well/100 μL and cultured at 37° C. for 24 hours. The medium was then replaced with 100 μL of the culture supernatant obtained in the culture supernatant acquisition step from the three-dimensional cultured epidermis as described above and cultured for 24 hours.
(§2) The culture supernatant of normal human fibroblasts was collected and an amount of type I collagen was quantified by ELISA. The protein amount of the culture supernatant was also measured by BCA protein assay.

[3] = tested on: Normal human fibroblasts (NHDF); assay: Type I collagen production by normal human fibroblasts directly treated with sample (Example 3, ELISA); assay type: cell-based; details: direct treatment of normal human fibroblasts with 1.25, 2.5, 5 mM sample, 24 hours
Description: as §1
Normal human fibroblasts (NHDF; Kurabo) were seeded in a 96-well plate at a density of 2.55×10^4 cells/well/100 μL and cultured at 37° C. for 24 hours. The medium was then replaced with 100 μL of media (HuMedia-KG2; Kurabo) containing CMP, 2Na at 0, 1.25, 2.5, 5 (mM) (i.e., 0, 0.0459, 0.0918, 0.184 (w/v %)) and UMP, 2Na at 0, 1.25, 2.5, 5 (MM) (i.e., 0, 0.046, 0.092, 0.184 (w/v %)), and cultured for 24 hours.
as §2

[4] = tested on: freshly extracted human skin; assay: Ex vivo evaluation test using freshly extracted human skin, elastica-van Gieson staining of collagen fibers (Example 4); details: CMP, 2Na 1.0, 2.0 w/v % applied from stratum corneum side, total of 72 hours
Description: To evaluate the effect on actual skin with greater precision, an ex vivo evaluation test was conducted using freshly extracted human skin.
Abdominal skin tissue was used, which was taken from a patient during cosmetic surgery, after obtaining informed consent for use in research. The extracted skin was placed in a culture plate supplemented with 1.3 ml of D-MEM/Ham's F-12 medium, and conditioned overnight at 37° C. in 5% CO2. An appropriate amount of PBS (-) containing a given concentration of each sample was applied from the stratum corneum side, and further cultured for 24 hours. The treatment was continued for a total of 72 hours while replacing the sample and medium with fresh ones every 24 hours. The concentrations of CMP, 2Na in the respective samples were 0, 1.0, and 2.0 (w/v %).
After the cultured skin tissue was fixed according to a standard method, skin tissue sections were prepared, collagen fibers were stained with elastica-van Gieson stain, and observed under a microscope.

[5] = tested on: cultured human skin fibroblasts; details: uridylic acid alone, as disclosed in Patent Literature 1; cited from earlier work

SMILES	amount of collagen in the culture supernatant from normal human fibroblasts (type I collagen) ([1]; UVB 600 mJ/cm^2)	amount of collagen in the culture supernatant from normal human fibroblasts (type I collagen) ([1]; UVB (-))	expression level of COL1A1 (mRNA, relative to 0 w/v %) (Collagen 1A1 (COL1A1))	effect of promoting collagen production, cytidylic acid compared with uridylic acid ([2]; Example 3)	amount of collagen in the culture supernatant of normal human fibroblasts (type I collagen) [2]	amount of collagen (type I collagen) [3]	collagen fibers in dermis (elastica-van Gieson stain) [4]	effect of promoting collagen production [5]
Nc1ccn([C@@H]2O[C@H](COP(=O)(O)O)[C@@H](O)[C@H]2O)c(=O)n1 [CMP, 2Na, disodium cytidylate]	increased	increased	increased	higher effect of promoting collagen production	increased	no increase	tended to result in denser collagen fibers	
O=c1ccn([C@@H]2O[C@H](COP(=O)(O)O)[C@@H](O)[C@H]2O)c(=O)[nH]1 [UMP, 2Na, disodium uridylate]					increased	no increase		no effect of promoting collagen production
